In patent publication US4382943A, “Anti-allergic aryl ether derivatives” (Boehringer Mannheim GmbH, priority 1980, dated 1983):
Counter-ions that a name gives are not always drawn.

Tested on: antigen induced bronchospasm in passively sensitized guinea pigs
Test: Inhibition of antigen induced bronchospasm (Br Sp) in passively sensitized guinea pigs
Format: in vivo, guinea pig
Details: Cavia porcellus, po, 0.05 h, 60 min before antigen, 3 min after antigen; for inhibition in vivo at 0.38 mg/kg: 0.38 mg/kg p.o.; for inhibition in vivo at 0.75 mg/kg: 0.75 mg/kg p.o.
Procedure: Specifically, tests were run as follows: […] Equal volumes of saline solution of antigen (5 mg/ml) and Freund's complete adjuvant were emulsified and 0.15 ml injected into each hind foot of adult male guinea pigs (Davies and Johnson: Int. Arch. Allergy 41,648-654 (1971)). The animals were bled and the pooled serum stored at -20° C. Passive Sensitization Injections of 0.5 ml antiserum of 1:50 dilution were given i.v. 24-48 h before challenge. Guinea pigs were anaesthetized with phenobarbital sodium (40 mg/kg i.p.). Cannulae were tied into the trachea and the jugular vein and the lung inflated with a pump at a rate of 72 strokes/min and a constant stroke volume of 6-8 ml. Bronchospasm, provoked by injecting ovalbumin i.v. was measured as described by Konzett, H. and R. Rossler, "Versuchsanordnung su Untersuchungen an der Bronchialmuskulatur" Naunyn-Schmiedebergs, Arch. exp. Path. Pharmak. 195, 71-74 (1940) and modified by Collier, […] and M. Schachter: "The Bronchoconstrictor Action of Bradykinin in the Guinea-Pig" Brit. J. Pharmacol. 15, 290 (1960). The drugs were applied per os 60 minutes before the antigen. For calculation the following formula was used: % Bronchospasm (b-a)/(m-a)×100 b=Bronchospasm after antigen injection, measured in mm from tracing m=maximum height of tracing in mm with arm of the tracheacannula clamped a=pre injection height of the tracing in mm % inhibition of bronchospasm was calculated by comparing control groups with drug pretreated groups 3 minutes after antigen application.

Row | SMILES | inhibition in vivo at 0.38 mg/kg | inhibition in vivo at 0.75 mg/kg | other results
1 | O=C(NC1CCN(CCCOc2ccc3c4c(c(=O)oc3c2)CCC4)CC1)c1ccccc1 [Example 1, 7-[3-(4-Benzamidopiperidino)-propoxy]-2,3-dihydrocyclopenta[c][1]benzopyran-4(1H)one hydrochloride] | 47% | – | –
2 | O=C(NC1CCN(CCCOc2ccc3c4c(c(=O)oc3c2)CCC4)CC1)c1ccc(F)cc1 [Example 2, 2,3-dihydro-7-{3-[4-(4-fluorobenzamido)-piperidino]-propoxy}-cyclopenta[c][1]benzopyran-4(1H)-one hydrochloride] | 67% | – | –
3 | Cc1ccccc1C(=O)NC1CCN(CCCOc2ccc3c4c(c(=O)oc3c2)CCC4)CC1 [Example 4, 2,3-dihydro-7-{3-[4-(2-methylbenzamido)-piperidino]-propoxy}-cyclopenta[c][1]benzopyran-4(1H)-one] | – | 76% | –
4 | O=C(Cc1ccccc1)NC1CCN(CCCOc2ccc3c4c(c(=O)oc3c2)CCC4)CC1 [Example 8, 2,3-dihydro-7-[3-(4-phenylacetamido-piperidino)-propoxy]-cyclopenta-[c][1]benzopyran-4(1H)-one] | – | 70% | –
5 | CC(=O)c1c(OCCCN2CCC(NC(=O)c3ccccc3)CC2)ccc2c3c(c(=O)oc12)CCC3 [Example 14, 6-acetyl-7-[3-(4-benzamido-piperidino)-propoxy]-2,3-dihydro-cyclopenta[c][1]benzopyran-4(1H)-one] | 79% | – | –
6 | O=C(NC1CCN(CCCOc2ccc3c4c(c(=O)oc3c2)CCCC4)CC1)c1ccc(F)cc1 [Example 17, 3-{3-[4-(4-fluorobenzamido)-piperidino]-propoxy}-7,8,9,10-tetrahydro-6H--dibenzo[b,d]pyran-6-one hydrochloride] | 58% | – | –
7 | COc1ccc(C(=O)NC2CCN(CCCOc3ccc4c5c(c(=O)oc4c3)CCCC5)CC2)cc1 [Example 18, 3-{3-[4-(4-methoxybenzamido)-piperidino]-propoxy}-7,8,9,10-tetrahydro-6H--dibenzo[b,d]-pyran-6-one] | 35% | 87% | –
8 | Cc1ccccc1C(=O)NC1CCN(CCCOc2ccc3c4c(c(=O)oc3c2)CCCC4)CC1 [Example 21, 3-{3-[4-(2-methyl-benzamido)-piperidino]-propoxy}-7,8,9,10-tetrahydro-6H--dibenzo[b,d]pyran-6-one] | 51% | 78% | –
9 | CC(C)(C)NCC(O)c1cc(O)cc(O)c1 (stereo not drawn) [Terbutalin, reference compound] | – | – | inhibition in vivo at 0.1 mg/kg (0.1 mg/kg p.o.): 12%; inhibition in vivo at 1 mg/kg (1.0 mg/kg p.o.): 52%
